Reference: US6596713B1, “Steroid esters and amides, process for their production and their pharmaceutical use” (priority 1994, dated 2003)

Format: physicochemical
Conditions: temperature in which 50 mg of substance is dissolved in 1 ml of a 1:4 benzyl benzoate/castor oil mixture; lower temperature = better solubility

| Compound | Solubility |
| --- | --- |
| [S-(Z)]-9,11α-Dihydro-17α-[3-[2-[[(1,1-dimethylethoxy)carbonyl]amino]-3-methyl-1-oxobutoxy]-1-propenyl]-17βhydroxy-6′-(3-pyridinyl)-4′H-naphtho[3′,2′,1′:10,9,11]estr-4-en-3-one [Example 25] | 50 °C |
| (Z)-9,11α-Dihydro-17β-hydroxy-17α-[3-[(1-oxopentyl)oxy]-1-propenyl]-6′-(3-pyridinyl)-4′H-naphtho[3′,2′,1′:10,9,11]estr-4-en-3-one [Example 19] | 50 °C |
| COC(=O)CCC(=O)OCC=CC1(O)CCC2C3CCC4=CC(=O)CCC45Cc4cc(-c6ccc(C#N)cc6)ccc4C(CC21C)C35 (stereo not drawn) [Example 9, (Z)-6′-(4-Cyanophenyl)-9,11α-dihydro-17α-[3-(1,4-dioxo-4-methoxybutoxy)-1-propenyl]-17β-hydroxy-4′H-naphtho[3′,2′,1′:10,9,11]estr-4-en-3-one] | 50 °C |
| (Z)-6′-(4-Cyanophenyl)-9,11α-dihydro-17α-hydroxy-17α-[3-[(1-oxododecyl)oxy]-1-propenyl]-4′H-naphtho[3′,2′,1′:10,9,11]estr-4-en-3-one [Example 5] | 23 °C |
| C[C@H](N)C(=O)OC/C=C\[C@]1(O)CC[C@H]2[C@@H]3CCC4=CC(=O)CC[C@@H]4[C@H]3[C@@H](c3ccc(N(C)C)cc3)C[C@@]21C [Example 30, [S-(Z)]-17α-[3-(2-Amino-1-oxopropoxy)-1-propenyl]-11β-[4-(dimethylamino)phenyl]-17βhydroxyestr-4-en-3-one] | 50 °C |
| (Z)-6′-(4-Cyanophenyl)-9,11α-dihydro-17β-hydroxy-17α-[3-[(1-oxononyl)oxy]-1-propenyl]-4′H-naphtho[3′,2′,1′:10,9,11]estr-4-en-3-one [Example 4] | 23 °C |
| (Z)-6′-(4-Cyanophenyl)-9,11α-dihydro-17β-hydroxy-17α-[3-[(1-oxopentyl)oxy]-1-propenyl]-4′H-naphtho[3′,2′,1′:10,9,11]estr-4-en-3-one [Example 2] | 50 °C |
| CC(C)C(NC(=O)OC(C)(C)C)C(=O)OCC=CC1(O)CCC2C3CCC4=CC(=O)CCC4C3C(c3ccc(N(C)C)cc3)CC21C (stereo not drawn) [Example 32, [S-(Z)]-11β-[4-(Dimethylamino)phenyl]-17α-[3-[2-[(1,1-dimethylethoxy)carbonyl]amino]-3-methyl-1-oxobutoxyl]-1-propenyl]-17β-hydroxyestr-4-en-3-one] | 23 °C |
| (Z)-6′-(4-Cyanophenyl)-17α-[3-(3-cyclopentyl-1-oxopropoxy)-1-propenyl]-9,11α-dihydro-17β-hydroxy-4′H-naphtho[3′,2′,1′:10,9,11]estr-4-en-3-one [Example 8] | 23 °C |
| 6′-(4-Fluorophenyl)-17α-(3-hydroxypropyl)-9,11α-dihydro-17β-hydroxy-4′H-naphtho[3′,2′,1′:10,9,11]estr-4-en-3-one [Ref. 6, reference compound] | 23 °C |
| (S-(Z)]-6′-(4-Cyanophenyl)-9,11α-dihydro-17α-[3-[2-[[(1,1-dimethylethoxy)carbonyl]amino]-1-oxopropoxy]-1-propenyl]-17β-hydroxy-4′H-naphtho[3′,2′,1′:10,9,11]estr-4-en-3-one [Example 15] | 23 °C |
| CC(C)C(NC(=O)OC(C)(C)C)C(=O)OCC=CC1(O)CCC2C3CCC4=CC(=O)CCC4C3C(c3ccc(-c4ccc(C#N)cc4)cc3)CC21C (stereo not drawn) [Example 34, [S-(Z)]-4′-[17α-[3-[2-[[(1,1-Dimethylethoxy)carbonyl]amino]-3-methyl-1-oxobutoxy]-1-propenyl]-17β-hydroxy-3-oxoestr-4-en-11β-yl][1,1′-biphenyl]-4-carbonitrile] | 50 °C |
| CC(C)C(N)C(=O)OCC=CC1(O)CCC2C3CCC4=CC(=O)CCC4C3C(c3ccc(-c4ccc(C#N)cc4)cc3)CC21C (stereo not drawn) [Example 39, [S-(Z)]-4′-[17α-[3-[2-Amino-3-methyl-1-oxobutoxy]-1-propenyl]-17β-hydroxy-3-oxoestr-4-en-11β-yl][1,1′-biphenyl]-4-carbonitrile] | 50 °C |
| CC(C)[C@H](NC(=O)OC(C)(C)C)C(=O)OCCC[C@@]1(O)CC[C@H]2[C@@H]3CCC4=CC(=O)CCC4=C3[C@@H](c3ccc(N(C)C)cc3)C[C@]21C [Example 29, (S)-11β-[4-(Dimethylamino)phenyl]-17α-[3-[2-[[(1,1-dimethylethoxy)-carbonyl]amino]-3-methyl-1-oxobutoxy]-1-propyl]-17α-hydroxy-13α-estra-4,9-dien-3-one] | 23 °C |
| CN(C)c1ccc(C2CC3(C)C(CCC3(O)C=CCOC(=O)CNC(=O)OC(C)(C)C)C3CCC4=CC(=O)CCC4C23)cc1 (stereo not drawn) [Example 37, [S-(Z)]-11β-[4-(Dimethylamino)phenyl]-17α-[3-[[[(1,1-dimethylethoxy)carbonyl]amino]acetyloxy]-1-propenyl]-17β-hydroxyestr-4-en-3-one] | 23 °C |
| (Z)-6′-(4-Cyanophenyl)-9,11α-dihydro-17α-[3-[[[[(1,1-dimethylethoxy)carbonyl]-amino]acetyl]oxy]-1-propenyl]-17βhydroxy-4′H-naphtho[3′,2′,1′:10,9,11]estr-4-en-3-one [Example 13] | 50 °C |
| CC(C)(C)CC(=O)OC/C=C\[C@]1(O)CC[C@H]2[C@@H]3CCC4=CC(=O)CC[C@@]45Cc4cc(-c6ccc(C#N)cc6)ccc4[C@@H](C[C@@]21C)[C@@H]35 [Example 7, (Z)-6′-(4-Cyanophenyl)-9,11α-dihydro-17α-[3-(3,3-dimethyl-1-oxobutoxy)-1-propenyl]-17β-hydroxy-4′H-naphtho[3′,2′,1′:10,9,11]estr-4-en-3-one] | 23 °C |
| (S)-6′-(4-Fluorophanyl)-9,11α-dihydro-17α-[3-[2-[[(1,1-dimethylethoxy) carbonyl]amino]-1-oxopropoxy]-1-propyl]-17β-hydroxy-4′H-naphtho[3′,2′,1′:10,9,11]estr-4-on-3-one [Example 43] | 23 °C |
| CC(NC(=O)OC(C)(C)C)C(=O)OCC=CC1(O)CCC2C3CCC4=CC(=O)CCC4C3C(c3ccc(-c4ccc(C#N)cc4)cc3)CC21C (stereo not drawn) [Example 33, [S-(z)]-4′-[17α-[3-[2-[[(1,1-Dimethylethoxy)carbonyl]amino]-1-oxopropoxy]-1-propenyl]-17β-hydroxy-3-oxoestr-4-en-11β-yl][1,1′-biphenyl]-4-carbonitrile] | 50 °C |
| (Z)-6′-(4-Cyanophenyl)-9,11α-dihydro-17α-[3-(1,4-dioxo-4-ethoxybutoxy)-1-propenyl]-17β-hydroxy-4′H-naphtho[3′,2′,1′:10,9,11]estr-4-en-3-one [Example 10] | 50 °C |

Next, values leading:

| Solubility | Compound |
| --- | --- |
| 23 °C | CC(N)C(=O)OCC=CC1(O)CCC2C3CCC4=CC(=O)CCC45Cc4cc(-c6ccc(C#N)cc6)ccc4C(CC21C)C35 (stereo not drawn) [Example 14, [S-(Z)]-17α-[3-(2-Amino-1-oxopropoxy)-1-propenyl]-6′-(4-cyanophenyl)-9,11α-dihydro-17β-hydroxy-4′H-naphtho [3′,2′,1′:10,9,11]estr-4-en-3-one] |
| 23 °C | CN(C)c1ccc(C2CC3(C)C(CCC3(O)CCCOC(=O)CNC(=O)OC(C)(C)C)C3CCC4=CC(=O)CCC4=C23)cc1 [Example 36, (S)-11β-[4-(Dimethylamino)phenyl]-17β-[3-[[[(1,1-dimethylethoxy)carbonyl]amino]acetyloxy]propyl]-17α-hydroxy-13α-estra-4,9-dien-3-one] |
| >>100 °C | CC12CC3c4ccc(-c5ccc(C#N)cc5)cc4CC45CCC(=O)C=C4CCC(C35)C1CCC2(O)C=CCO (stereo not drawn) [Ref. 1, (Z)-6′-(4-cyanophenyl)-9,11α-dihydro-17β-hydroxy-17α-(3-hydroxy-1-propenyl)-4′H-naphtho[3′,2′,1′:10,9,11]estr-4-en-3-one, reference compound] |
| 100 °C | CCOCCC(=O)OCC=CC1(O)CCC2C3CCC4=CC(=O)CCC45Cc4cc(-c6ccc(C#N)cc6)ccc4C(CC21C)C35 (stereo not drawn) [Example 11, (Z)-6′-(4-Cyanophenyl)-9,11α-dihydro-17α-[3-(3-ethoxy-1-oxopropoxy)-1-propenyl]-17βhydroxy-4′H-naphtho[3′,2′,1′:10,9,11]estr-4-en-3-one] |
| >>100 °C | C[C@]12C[C@@H]3c4ccc(-c5cccnc5)cc4C[C@]45CCC(=O)C=C4CC[C@H]([C@H]35)[C@@H]1CC[C@@]2(O)/C=C\CO [Ref. 2, (Z)-9,11α-dihydro-17β-hydroxy-17α-(3-hydroxy-1-propenyl)-6′-(3-pyridinyl)-4′H-naphtho[3′,2′,1′:10,9,11]estr-4-en-3-one, reference compound] |
| 23 °C | 6′-(4-Fluorophonyl)-17α-(3-hydroxyprop-1-inyl)-9,11α-dihydro-17β-hydroxy-4′H-naphtho[3′,2′,1′:10,9,11]estr-4-on-3-one [Ref. 5, reference compound] |
| 50 °C | [S-(Z)]-17α-[3-(2-Amino-1-oxopropoxy)-1-propenyl]-6′-(4-fluorophenyl)-9,11α-dihydro-17β-hydroxy-4′H-naphtho[3′,2′,1′:10,9,11]estr-4-en-3-one [Example 40] |
| 100 °C | (Z)-6′-(4-Fluorophenyl)-17α-(3-hydroxyprop-1-enyl)-9, 11α-dihydro-17β-hydroxy-4′-naphtho]3′,2′,1′:10,9,11]estr-4-en-3-one [Ref. 4, reference compound] |
| 100 °C | CC(C)C(=O)OC/C=C\[C@]1(O)CC[C@H]2[C@@H]3CCC4=CC(=O)CC[C@@]45Cc4cc(-c6ccc(C#N)cc6)ccc4[C@@H](C[C@@]21C)[C@@H]35 [Example 6, (Z)-6′-(4-Cyanophenyl)-9,11α-dihydro-17β-hydroxy-17α-[3-(1-oxo-2-methylpropoxy)-1-propenyl]-4′H-naphtho[3′,2′,1′:10,9,11]estr-4-en-3-one] |
| 23 °C | CC(NC(=O)OC(C)(C)C)C(=O)OCCCC1(O)CCC2C3CCC4=CC(=O)CCC4=C3C(c3ccc(N(C)C)cc3)CC21C [Example 27, (S)-11β-[4-(Dimethylamino)phenyl]-17β-[3-[2-[[(1,1-dimethylethoxy)-carbonyl]amino]-1-oxopropoxy]propyl]-17α-hydroxy-13α-estra-4,9-dien-3-one] |
